Experiments:
Experiment in all cases: Drug affinity chromatography with c-ponatinib and LC-MS/MS (ponatinib interactome)
Assay type in all cases: binding
[1] = target: T1, proteins of U2OS cell lysate (Homo sapiens, UniProt Q9BQE3)
T1 construct: Proteins enriched by c-ponatinib from U2OS cell lysate; endogenous in cells; host or cells: U2OS cell lysate
Procedure: (§1) Drug affinity chromatography
(§2) U2OS cells were grown until approximately 80% confluent before being pelleted and washed with PBS. Cell pellets were subsequently lysed in buffer A (50 mM Tris pH 7.5, 0.8% v/v NP-40, 5% v/v glycerol, 1.5 mM MgCl2, 100 mM NaCl, 25 mM NaF, 1 mM Na3VO4, 1 mM PMSF, 1mM DTT, 10 μg/mL TLCK, 1 μg/ml Leupeptin, 1 μg/ml Aprotinin, 1 μg/ml soy bean trypsin) and lysates prepared […]
(§3) concentration was determined and lysates stored at -80 °C.
(§4) Briefly, 100 μl of bead slurry (50% in isopropanol) were used for each pulldown experiment. Beads were washed with DMSO (3 × 500 μl), and resuspended in DMSO (50 μl), to which the amine (0.025 μmol) and triethylamine (0.75 μl) were added. The beads were incubated at room temperature for 16 h, and depletion of free amine from the supernatant was determined by LC-MS analysis. Ethanolamine (2.5 μl) was then added to block any unreacted NHS sites, and the beads incubated for a further 16 h. Derivatized beads were then washed with DMSO (3 × 500 μl), buffer A (3 × 1 ml), and incubated with cell lysates (2 mg of protein per pulldown, at 6 […]
(§5) Beads and treated lysates were incubated for 2 h at 4 °C before washing with buffer A (5 ml), Buffer B (50 mM HEPES pH 7.5, 100 mM NaCl, 500 μM EDTA, 2.5 ml), and eluted with formic acid (100 mM, 250 μl). Samples were neutralized with triethylammoniumbicarbonate (TEAB, 1M, 62.5 μl) and stored at -20 °C until preparation for proteomic analysis.
(§6) Samples were reduced with DTT (10 mM final concentration) for 30 min at room temperature, alkylated with iodoacetamide (55 mM final concentration) for 30 min at room temperature, diluted to 300 μl with TEAB, and incubated with trypsin (6 μl, 0.2 mg/ml) overnight at 37 °C. The digests were desalted using SEPAC lite columns (Waters), eluted with 69 % v/v MeCN, 0.1 % v/v FA in H2O (1 ml) and dried in vacuo. Dried peptides were stored at -20 °C before resuspension in 2 % v/v MeCN, 1 % v/v FA in H2O (20 μl) for LC-MS/MS analysis.
(§7) LC-MS/MS data acquisition
(§8) Mass spectrometry data was acquired at the Discovery Proteomics Facility (University of Oxford).
(§9) Digested samples were analyzed by nano-UPLC–MS/MS using a Dionex Ultimate 3000 nano UPLC with EASY spray column (75 μm × 500 mm, 2 μm particle size, Thermo Fisher Scientific) with a 60 min gradient of 0.1 % (v/v) formic acid in 5 % (v/v) DMSO to 0.1 % (v/v) formic acid with 35 % (v/v) acetonitrile in 5 % (v/v) DMSO at a flow rate of approximately 250 nl min−1 (600 bar per 40 °C column temperature). Mass spectrometry data was acquired either with an Orbitrap Q Exactive (Survey scans acquired at a resolution of 70,000 @ 200m/z and the 15 most abundant precursors were selected for HCD fragmentation), or an Orbitrap Q Exactive High Field (HF) instrument (survey scans were […]

[2] = target: T2, proteins of U2OS cell lysate (Homo sapiens, UniProt O15372)
T2 construct: Proteins enriched by c-ponatinib from U2OS cell lysate; endogenous in cells; host or cells: U2OS cell lysate
Procedure: as §1, §2, §3, §4, §5, §6, §7, §8, §9

[3] = target: T3, proteins of U2OS cell lysate (Homo sapiens, UniProt Q9BUF5)
T3 construct: Proteins enriched by c-ponatinib from U2OS cell lysate; endogenous in cells; host or cells: U2OS cell lysate
T3 sequence (Q9BUF5 whole entry): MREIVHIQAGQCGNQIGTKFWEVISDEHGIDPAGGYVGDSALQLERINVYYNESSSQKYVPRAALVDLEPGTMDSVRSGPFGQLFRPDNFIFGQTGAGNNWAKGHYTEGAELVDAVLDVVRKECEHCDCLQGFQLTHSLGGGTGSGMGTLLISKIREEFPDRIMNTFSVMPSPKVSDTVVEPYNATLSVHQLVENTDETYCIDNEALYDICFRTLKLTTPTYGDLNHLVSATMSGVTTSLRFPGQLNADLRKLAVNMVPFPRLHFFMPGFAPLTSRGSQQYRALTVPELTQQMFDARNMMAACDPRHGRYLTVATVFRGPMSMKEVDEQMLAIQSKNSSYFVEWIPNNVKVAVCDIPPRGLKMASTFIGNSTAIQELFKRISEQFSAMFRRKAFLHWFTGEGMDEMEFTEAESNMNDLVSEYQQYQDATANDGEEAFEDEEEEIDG
Procedure: as §1, §2, §3, §4, §5, §6, §7, §8, §9

[4] = target: T4, proteins of U2OS cell lysate (Homo sapiens, UniProt P30049)
T4 construct: Proteins enriched by c-ponatinib from U2OS cell lysate; endogenous in cells; host or cells: U2OS cell lysate
T4 sequence (P30049 23-168): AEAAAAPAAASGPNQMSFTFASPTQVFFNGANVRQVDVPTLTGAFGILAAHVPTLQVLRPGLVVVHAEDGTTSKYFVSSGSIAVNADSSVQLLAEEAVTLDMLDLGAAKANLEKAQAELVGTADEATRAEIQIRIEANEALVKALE
Procedure: as §1, §2, §3, §4, §5, §6, §7, §8, §9

[5] = target: T5, proteins of U2OS cell lysate (Homo sapiens, UniProt Q92598)
T5 construct: Proteins enriched by c-ponatinib from U2OS cell lysate; endogenous in cells; host or cells: U2OS cell lysate
Procedure: as §1, §2, §3, §4, §5, §6, §7, §8, §9

[6] = target: T6, proteins of U2OS cell lysate (Homo sapiens, UniProt Q9BWU1)
T6 construct: Proteins enriched by c-ponatinib from U2OS cell lysate; endogenous in cells; host or cells: U2OS cell lysate
Procedure: as §1, §2, §3, §4, §5, §6, §7, §8, §9

[7] = target: T7, proteins of U2OS cell lysate (Homo sapiens, UniProt Q9NX63)
T7 construct: Proteins enriched by c-ponatinib from U2OS cell lysate; endogenous in cells; host or cells: U2OS cell lysate
T7 sequence (Q9NX63 whole entry): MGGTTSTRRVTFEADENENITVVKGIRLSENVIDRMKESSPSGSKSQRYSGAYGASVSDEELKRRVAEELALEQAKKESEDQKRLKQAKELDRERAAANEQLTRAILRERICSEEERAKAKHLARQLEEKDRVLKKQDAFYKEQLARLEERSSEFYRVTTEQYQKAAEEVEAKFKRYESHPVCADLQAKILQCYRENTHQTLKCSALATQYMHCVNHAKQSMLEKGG
Procedure: as §1, §2, §3, §4, §5, §6, §7, §8, §9

[8] = target: T8, proteins of U2OS cell lysate (Homo sapiens, UniProt P83436)
T8 construct: Proteins enriched by c-ponatinib from U2OS cell lysate; endogenous in cells; host or cells: U2OS cell lysate
T8 sequence (P83436 whole entry): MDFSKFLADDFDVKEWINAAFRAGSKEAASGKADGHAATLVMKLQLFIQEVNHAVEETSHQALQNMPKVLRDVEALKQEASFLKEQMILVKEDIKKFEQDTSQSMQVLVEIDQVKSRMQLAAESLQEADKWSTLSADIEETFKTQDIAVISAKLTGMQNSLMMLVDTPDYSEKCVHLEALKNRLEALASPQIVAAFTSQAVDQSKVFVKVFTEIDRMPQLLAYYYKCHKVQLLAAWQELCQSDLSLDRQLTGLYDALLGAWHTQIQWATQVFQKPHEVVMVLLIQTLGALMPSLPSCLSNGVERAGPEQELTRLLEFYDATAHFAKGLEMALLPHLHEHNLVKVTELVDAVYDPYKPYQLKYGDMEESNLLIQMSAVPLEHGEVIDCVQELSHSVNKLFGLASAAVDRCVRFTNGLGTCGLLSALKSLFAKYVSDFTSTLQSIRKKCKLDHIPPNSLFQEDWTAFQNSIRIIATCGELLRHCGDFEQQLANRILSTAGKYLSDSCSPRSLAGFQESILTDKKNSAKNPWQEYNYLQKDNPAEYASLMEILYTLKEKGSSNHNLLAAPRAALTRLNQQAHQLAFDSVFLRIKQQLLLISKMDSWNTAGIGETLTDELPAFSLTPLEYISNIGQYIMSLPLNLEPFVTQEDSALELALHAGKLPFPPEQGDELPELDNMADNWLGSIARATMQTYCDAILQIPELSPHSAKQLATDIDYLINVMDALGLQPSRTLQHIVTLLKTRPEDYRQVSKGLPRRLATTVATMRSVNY
Procedure: as §1, §2, §3, §4, §5, §6, §7, §8, §9

[9] = target: T9, proteins of U2OS cell lysate (Homo sapiens, UniProt P35268)
T9 construct: Proteins enriched by c-ponatinib from U2OS cell lysate; endogenous in cells; host or cells: U2OS cell lysate
Procedure: as §1, §2, §3, §4, §5, §6, §7, §8, §9

[10] = target: T10, proteins of U2OS cell lysate (Homo sapiens, UniProt P36957)
T10 construct: Proteins enriched by c-ponatinib from U2OS cell lysate; endogenous in cells; host or cells: U2OS cell lysate
T10 sequence (P36957 68-453): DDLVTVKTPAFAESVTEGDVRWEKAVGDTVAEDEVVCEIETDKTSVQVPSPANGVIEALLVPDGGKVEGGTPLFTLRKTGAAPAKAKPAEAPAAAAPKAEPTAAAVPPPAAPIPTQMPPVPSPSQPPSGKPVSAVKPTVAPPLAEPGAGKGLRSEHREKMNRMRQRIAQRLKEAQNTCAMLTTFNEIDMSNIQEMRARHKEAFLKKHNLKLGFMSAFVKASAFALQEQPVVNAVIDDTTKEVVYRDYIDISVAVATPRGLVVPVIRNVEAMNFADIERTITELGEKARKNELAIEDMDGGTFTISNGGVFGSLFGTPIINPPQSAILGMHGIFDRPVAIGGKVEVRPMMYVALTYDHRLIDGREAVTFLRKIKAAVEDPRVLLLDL
Procedure: as §1, §2, §3, §4, §5, §6, §7, §8, §9

[11] = target: T11, proteins of U2OS cell lysate (Homo sapiens, UniProt Q9UBN7)
T11 construct: Proteins enriched by c-ponatinib from U2OS cell lysate; endogenous in cells; host or cells: U2OS cell lysate
T11 sequence (Q9UBN7 whole entry): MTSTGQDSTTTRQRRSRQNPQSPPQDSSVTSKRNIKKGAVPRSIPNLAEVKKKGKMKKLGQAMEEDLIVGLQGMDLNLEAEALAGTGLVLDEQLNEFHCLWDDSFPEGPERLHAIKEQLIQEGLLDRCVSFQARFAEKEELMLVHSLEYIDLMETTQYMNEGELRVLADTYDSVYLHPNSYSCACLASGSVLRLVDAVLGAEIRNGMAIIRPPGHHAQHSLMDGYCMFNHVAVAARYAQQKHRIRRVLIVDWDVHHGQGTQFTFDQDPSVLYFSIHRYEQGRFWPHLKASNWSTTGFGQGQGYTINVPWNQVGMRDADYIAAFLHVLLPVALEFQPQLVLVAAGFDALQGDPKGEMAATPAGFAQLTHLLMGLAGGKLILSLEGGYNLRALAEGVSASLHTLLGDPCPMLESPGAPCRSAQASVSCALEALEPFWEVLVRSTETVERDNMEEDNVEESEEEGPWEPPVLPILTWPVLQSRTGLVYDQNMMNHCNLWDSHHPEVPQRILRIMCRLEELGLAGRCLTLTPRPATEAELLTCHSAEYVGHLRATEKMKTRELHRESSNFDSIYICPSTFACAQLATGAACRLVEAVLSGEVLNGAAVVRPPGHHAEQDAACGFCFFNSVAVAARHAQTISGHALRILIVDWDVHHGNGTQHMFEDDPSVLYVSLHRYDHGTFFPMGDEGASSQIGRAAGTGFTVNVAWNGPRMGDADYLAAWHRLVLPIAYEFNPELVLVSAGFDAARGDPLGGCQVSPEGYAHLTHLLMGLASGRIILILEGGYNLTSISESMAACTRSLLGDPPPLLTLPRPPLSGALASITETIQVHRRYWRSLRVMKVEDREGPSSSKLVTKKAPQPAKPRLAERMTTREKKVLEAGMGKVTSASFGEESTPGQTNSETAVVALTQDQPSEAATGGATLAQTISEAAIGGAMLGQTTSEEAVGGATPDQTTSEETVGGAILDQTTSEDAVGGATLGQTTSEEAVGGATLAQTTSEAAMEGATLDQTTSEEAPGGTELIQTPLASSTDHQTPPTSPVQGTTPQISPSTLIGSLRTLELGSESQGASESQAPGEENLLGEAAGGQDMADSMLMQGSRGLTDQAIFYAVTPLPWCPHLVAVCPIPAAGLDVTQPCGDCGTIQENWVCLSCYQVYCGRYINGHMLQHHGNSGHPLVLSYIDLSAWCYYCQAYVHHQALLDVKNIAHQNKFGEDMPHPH
Procedure: as §1, §2, §3, §4, §5, §6, §7, §8, §9

[12] = target: T12, proteins of U2OS cell lysate (Homo sapiens, UniProt Q13435)
T12 construct: Proteins enriched by c-ponatinib from U2OS cell lysate; endogenous in cells; host or cells: U2OS cell lysate
T12 sequence (Q13435 whole entry): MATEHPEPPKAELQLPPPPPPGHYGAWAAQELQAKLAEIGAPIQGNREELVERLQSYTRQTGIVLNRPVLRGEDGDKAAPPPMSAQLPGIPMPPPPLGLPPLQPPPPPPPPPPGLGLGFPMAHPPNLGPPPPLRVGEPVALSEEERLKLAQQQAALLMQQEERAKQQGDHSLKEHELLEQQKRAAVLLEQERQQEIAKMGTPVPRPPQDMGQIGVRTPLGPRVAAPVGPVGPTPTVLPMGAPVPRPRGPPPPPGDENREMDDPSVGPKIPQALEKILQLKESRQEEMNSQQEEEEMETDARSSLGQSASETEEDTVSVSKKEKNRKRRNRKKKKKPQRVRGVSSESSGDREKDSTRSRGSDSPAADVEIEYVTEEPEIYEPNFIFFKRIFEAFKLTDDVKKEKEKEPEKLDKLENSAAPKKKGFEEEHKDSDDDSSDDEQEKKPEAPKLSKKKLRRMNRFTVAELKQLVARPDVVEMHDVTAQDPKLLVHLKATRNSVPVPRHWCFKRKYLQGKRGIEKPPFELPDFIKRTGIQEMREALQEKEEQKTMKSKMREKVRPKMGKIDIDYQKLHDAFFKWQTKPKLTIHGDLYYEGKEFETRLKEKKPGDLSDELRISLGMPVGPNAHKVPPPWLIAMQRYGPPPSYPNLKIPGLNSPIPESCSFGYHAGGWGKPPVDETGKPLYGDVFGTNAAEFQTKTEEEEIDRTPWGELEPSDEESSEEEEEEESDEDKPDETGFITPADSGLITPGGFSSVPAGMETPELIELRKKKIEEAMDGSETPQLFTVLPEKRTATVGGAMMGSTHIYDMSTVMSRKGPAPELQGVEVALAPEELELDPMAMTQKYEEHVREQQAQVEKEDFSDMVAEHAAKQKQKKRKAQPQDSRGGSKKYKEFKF
Procedure: as §1, §2, §3, §4, §5, §6, §7, §8, §9

[13] = target: T13, proteins of U2OS cell lysate (Homo sapiens, UniProt P28072)
T13 construct: Proteins enriched by c-ponatinib from U2OS cell lysate; endogenous in cells; host or cells: U2OS cell lysate
T13 sequence (P28072 whole entry): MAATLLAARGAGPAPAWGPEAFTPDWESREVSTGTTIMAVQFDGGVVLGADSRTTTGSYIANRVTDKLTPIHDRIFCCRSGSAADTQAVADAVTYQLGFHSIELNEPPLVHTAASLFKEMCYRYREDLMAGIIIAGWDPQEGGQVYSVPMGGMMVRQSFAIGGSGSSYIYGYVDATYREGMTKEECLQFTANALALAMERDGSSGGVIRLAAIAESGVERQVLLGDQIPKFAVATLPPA
Procedure: as §1, §2, §3, §4, §5, §6, §7, §8, §9

[14] = target: T14, proteins of U2OS cell lysate (Homo sapiens, UniProt Q16186)
T14 construct: Proteins enriched by c-ponatinib from U2OS cell lysate; endogenous in cells; host or cells: U2OS cell lysate
Procedure: as §1, §2, §3, §4, §5, §6, §7, §8, §9

[15] = target: T15, proteins of U2OS cell lysate (Homo sapiens, UniProt P40227)
T15 construct: Proteins enriched by c-ponatinib from U2OS cell lysate; endogenous in cells; host or cells: U2OS cell lysate
Procedure: as §1, §2, §3, §4, §5, §6, §7, §8, §9

[16] = target: T16, proteins of U2OS cell lysate (Homo sapiens, UniProt P53999)
T16 construct: Proteins enriched by c-ponatinib from U2OS cell lysate; endogenous in cells; host or cells: U2OS cell lysate
Procedure: as §1, §2, §3, §4, §5, §6, §7, §8, §9

[17] = target: T17, proteins of U2OS cell lysate (Homo sapiens, UniProt Q99832)
T17 construct: Proteins enriched by c-ponatinib from U2OS cell lysate; endogenous in cells; host or cells: U2OS cell lysate
Procedure: as §1, §2, §3, §4, §5, §6, §7, §8, §9

[18] = target: T18, proteins of U2OS cell lysate (Homo sapiens, UniProt Q16643)
T18 construct: Proteins enriched by c-ponatinib from U2OS cell lysate; endogenous in cells; host or cells: U2OS cell lysate
Procedure: as §1, §2, §3, §4, §5, §6, §7, §8, §9

[19] = target: T19, proteins of U2OS cell lysate (Homo sapiens, UniProt Q96P70)
T19 construct: Proteins enriched by c-ponatinib from U2OS cell lysate; endogenous in cells; host or cells: U2OS cell lysate
Procedure: as §1, §2, §3, §4, §5, §6, §7, §8, §9

T1 sequence (Q9BQE3 whole entry): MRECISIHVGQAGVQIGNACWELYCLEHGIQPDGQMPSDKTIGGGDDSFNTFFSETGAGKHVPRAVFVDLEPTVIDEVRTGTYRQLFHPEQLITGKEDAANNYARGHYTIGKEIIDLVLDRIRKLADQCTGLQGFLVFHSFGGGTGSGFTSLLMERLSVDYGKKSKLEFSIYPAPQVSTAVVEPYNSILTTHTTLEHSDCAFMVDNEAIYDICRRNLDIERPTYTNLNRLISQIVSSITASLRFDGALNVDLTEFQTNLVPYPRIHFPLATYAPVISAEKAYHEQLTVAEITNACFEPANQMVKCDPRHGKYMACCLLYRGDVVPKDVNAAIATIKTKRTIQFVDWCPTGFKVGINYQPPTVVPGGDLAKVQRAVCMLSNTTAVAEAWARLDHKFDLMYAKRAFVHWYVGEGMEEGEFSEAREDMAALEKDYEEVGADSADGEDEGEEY

In the case of `Cc1ccc(C(=O)Nc2ccc(CN3CCN(CCCN)CC3)c(C(F)(F)F)c2)cc1C#Cc1cnc2cccnn12` [c-ponatinib, reference compound], the “Average LFQ intensity” value ([1]; captured protein TUBA1C, Rank 213) is reported as 21.711, the “Average LFQ intensity” value ([2]; captured protein EIF3H;EIF3S3, Rank 114) is reported as 23.1902 and the “Average LFQ intensity” value ([3]; captured protein TUBB6, Rank 151) is reported as 22.6671. The “Average LFQ intensity” value ([4]; captured protein ATP5D, Rank 121) was 23.0608, the “Average LFQ intensity” value ([5]; captured protein HSPH1, Rank 164) was 22.3551 and the “Average LFQ intensity” value ([6]; captured protein CDK19, Rank 226) was 21.5435. The “Average LFQ intensity” value ([7]; captured protein CHCHD3, Rank 154) was 22.5984, the “Average LFQ intensity” value ([8]; captured protein COG7, Rank 182) was 22.1578 and the “Average LFQ intensity” value ([9]; captured protein RPL22, Rank 221) was 21.5804. For the same compound, the “Average LFQ intensity” value ([10]; captured protein DLST, Rank 218) was 21.6592, the “Average LFQ intensity” value ([11]; captured protein HDAC6, Rank 137) was 22.8295 and the “Average LFQ intensity” value ([12]; captured protein SF3B2, Rank 136) was 22.8369. The “Average LFQ intensity” value ([13]; captured protein PSMB6, Rank 145) was 22.7359, the “Average LFQ intensity” value ([14]; captured protein ADRM1, Rank 178) was 22.2159 and the “Average LFQ intensity” value ([15]; captured protein CCT6A, Rank 133) was 22.8673. The “Average LFQ intensity” value ([16]; captured protein SUB1, Rank 126) was 22.9694, the “Average LFQ intensity” value ([17]; captured protein CCT7, Rank 127) was 22.9495 and the “Average LFQ intensity” value ([18]; captured protein DBN1, Rank 158) was 22.4964. For the same compound, the “Average LFQ intensity” value ([19]; captured protein IPO9, Rank 229) was 21.5093.

In the case of `Cc1ccc(C(=O)Nc2ccc(CN3CCN(C)CC3)c(C(F)(F)F)c2)cc1C#Cc1cnc2cccnn12` [PON], the “Average LFQ PON_WT” value ([1]; TUBA1C, Tubulin alpha-1C chain) is reported as 21.711, the “Average LFQ PON_WT” value ([2]; EIF3H;EIF3S3, Eukaryotic translation initiation factor 3 subunit H) is reported as 23.1902 and the “Average LFQ PON_WT” value ([3]; TUBB6, Tubulin beta-6 chain) is reported as 22.6671. The “Average LFQ PON_WT” value ([4]; ATP5D, ATP synthase subunit delta, mitochondrial) was 23.0608, the “Average LFQ PON_WT” value ([5]; HSPH1, Heat shock protein 105 kDa) was 22.355 and the “Average LFQ PON_WT” value ([6]; CDK19, Cyclin-dependent kinase 19) was 21.5435. For the same compound, the “Average LFQ PON_WT” value ([7]; CHCHD3, Coiled-coil-helix-coiled-coil-helix domain-containing protein 3, mitochondrial) was 22.5984, the “Average LFQ PON_WT” value ([8]; COG7, Conserved oligomeric Golgi complex subunit 7) was 22.1578 and the “Average LFQ PON_WT” value ([9]; RPL22, 60S ribosomal protein L22) was 21.5804. The “Average LFQ PON_WT” value ([10]; DLST, Dihydrolipoyllysine-residue succinyltransferase component of 2-oxoglutarate dehydrogenase complex, mitochondrial) was 21.6592, the “Average LFQ PON_WT” value ([11]; HDAC6, Histone deacetylase 6) was 22.8295 and the “Average LFQ PON_WT” value ([12]; SF3B2, Splicing factor 3B subunit 2) was 22.8369. For the same compound, the “Average LFQ PON_WT” value ([13]; PSMB6, Proteasome subunit beta type-6) was 22.7359, the “Average LFQ PON_WT” value ([14]; ADRM1, Proteasomal ubiquitin receptor ADRM1) was 22.2159 and the “Average LFQ PON_WT” value ([15]; CCT6A, T-complex protein 1 subunit zeta) was 22.8673. For the same compound, the “Average LFQ PON_WT” value ([16]; SUB1, Activated RNA polymerase II transcriptional coactivator p15) was 22.9694, the “Average LFQ PON_WT” value ([17]; CCT7, T-complex protein 1 subunit eta) was 22.9495 and the “Average LFQ PON_WT” value ([18]; DBN1, Drebrin) was 22.4964. For the same compound, the “Average LFQ PON_WT” value ([19]; IPO9, Importin-9) was 21.5093.

From paper PMC6120666 (The EMBO Journal, 2018)
